In ChEMBL document CHEMBL4346748, “Growth inhibition by 1-deoxy-d-allulose, a novel bioactive deoxy sugar, screened using Caenorhabditis elegans assay” (Bioorg Med Chem Lett, 2019):
The source made the active and inactive calls. The rule behind the calls is not given here.

Experiments:
Caenorhabditis elegans [1] = assay: Growth inhibition of Caenorhabditis elegans N2 assessed as effect on body shape at 42 mM incubated for 72 hrs by microscopic method; format: functional, organism-based
Caenorhabditis elegans [2] = assay: Growth inhibition of Caenorhabditis elegans N2 assessed as reduction in body size incubated for 72 hrs by microscopic method; format: functional; settings: for GI50: N2, 72 h
Caenorhabditis elegans [3] = assay: Growth inhibition of Caenorhabditis elegans N2 assessed as reduction in motility at 42 mM incubated for 72 hrs by microscopic method; format: functional, organism-based
[4] = Toxicity in Caenorhabditis elegans N2 assessed as mortality at 42 mM incubated for 72 hrs by microscopic method; settings: 42000 µM
Caenorhabditis elegans [5] = assay: Growth inhibition of Caenorhabditis elegans N2 assessed as effect on body size at 42 mM incubated for 72 hrs by microscopic method; format: functional, organism-based
Caenorhabditis elegans [6] = assay: Growth inhibition of Caenorhabditis elegans N2 assessed as reduction in body size at 9.5 mM incubated for 72 hrs in presence of D-ribose by microscopic method; format: functional, organism-based
Caenorhabditis elegans [7] = assay: Growth inhibition of Caenorhabditis elegans N2 assessed as reduction in body size at 9.5 mM incubated for 72 hrs in presence of D-fructose by microscopic method; format: functional, organism-based
Caenorhabditis elegans [8] = assay: Ratio of GI50 for D-Alu to GI50 for test compound for growth inhibition of Caenorhabditis elegans N2 assessed as reduction in body size incubated for 72 hrs by microscopic method; format: functional
Caenorhabditis elegans [9] = assay: Growth inhibition of Caenorhabditis elegans N2 assessed as body size at 42 mM incubated for 72 hrs by microscopic method relative to control; format: functional; set-up: scale not given: the % may be the effect or the level left
Caenorhabditis elegans [10] = assay: Growth inhibition of Caenorhabditis elegans N2 assessed as reduction in body size at 9.5 mM incubated for 72 hrs in presence of up to 67 mM D-glucose by microscopic method; format: functional, organism-based

CC(=O)[C@H](O)[C@H](O)[C@H](O)CO
growth inhibition (GI) (Caenorhabditis elegans [1]): Active
growth inhibition (GI) (Caenorhabditis elegans [2]): Dose-dependent effect
GI50 (Caenorhabditis elegans [2]): 5.4 mM
growth inhibition (GI) (Caenorhabditis elegans [3]): Active
Activity [4]: Non-Toxic
growth inhibition (GI) (Caenorhabditis elegans [5]): Active
growth inhibition (GI) (Caenorhabditis elegans [6]): inactive
growth inhibition (GI) (Caenorhabditis elegans [7]): inactive
RatioGI50 (Caenorhabditis elegans [8]): 10
Activity (Caenorhabditis elegans [9]): 5.7%
growth inhibition (GI) (Caenorhabditis elegans [10]): Active

CC(=O)[C@@H](O)[C@@H](O)[C@H](O)CO
growth inhibition (GI) (Caenorhabditis elegans [9]): inactive

O=C(CO)[C@H](O)[C@H](O)[C@H](O)CO
GI50 (Caenorhabditis elegans [2]): 52.7 mM

CC(=O)[C@@H](O)[C@H](O)[C@H](O)CO
growth inhibition (GI) (Caenorhabditis elegans [9]): inactive

CC(=O)[C@H](O)[C@H](O)[C@@H](O)CO
growth inhibition (GI) (Caenorhabditis elegans [9]): inactive

CC(=O)[C@@H](O)[C@@H](O)[C@@H](O)CO
growth inhibition (GI) (Caenorhabditis elegans [9]): inactive

CC(=O)[C@@H](O)[C@H](O)[C@@H](O)CO
growth inhibition (GI) (Caenorhabditis elegans [9]): inactive

CC(=O)[C@H](O)[C@@H](O)[C@@H](O)CO
growth inhibition (GI) (Caenorhabditis elegans [9]): inactive

CC(=O)[C@H](O)[C@@H](O)[C@H](O)CO
growth inhibition (GI) (Caenorhabditis elegans [9]): inactive

C[C@@H](O)[C@@H](O)[C@@H](O)C(=O)CO
growth inhibition (GI) (Caenorhabditis elegans [9]): inactive

O=C(CO)[C@H](O)[C@H](O)CCO
growth inhibition (GI) (Caenorhabditis elegans [9]): inactive
